Some test systems named below: HCC 2998; HCT-116; MDA-MB-231; A549; SW-620; SN12C; HL-60; SK-MEL-2; HOP-92; SNB-75; UO-31; SR; NCI-H226; HT-29; NCI-H522; Malme-3M; Hs-578T.
What all share (assay): NCI tumour cell line growth inhibition, 48 h

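Briefly, cells in 96-well plates were exposed to five compound concentrations for 48 h, and endpoints were estimated by linear interpolation. GI50 is the concentration that inhibits growth by half.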 Active and inactive are the calls of the source. Cut-off read from the data, not from the text of the source: active = GI50 up to about 1.1 µM and inactive = higher.

With `N#Cc1c(-c2ccc(Cl)cc2)c(C#N)c(=O)n(NS(=O)(=O)c2ccccc2)c1-c1ccccc1`, the GI50 in the experiment with HCC 2998, with HCT-116, in the experiment with MDA-MB-231, with A549, with SW-620 and with SN12C was > 25 µM (inactive) throughout. In addition, the GI50 with HL-60, with SK-MEL-2 and in the experiment on HOP-92 was > 25 µM (inactive) throughout.
With `Cc1ccc(S(=O)(=O)OI(O)CC(F)(F)F)cc1`, the GI50 in the experiment on HCC 2998, in the experiment with SNB-75, in the experiment on UO-31, in the experiment with HCT-116, in the experiment with SR and with MDA-MB-231 was > 100 µM (inactive) throughout. Further, the GI50 with A549, in the experiment on NCI-H226, with SW-620, with SN12C, with HL-60 and with SK-MEL-2 was > 100 µM (inactive) in each case. In addition, the GI50 is > 100 µM (inactive) in the experiment with HT-29, > 100 µM (inactive) in the experiment on HOP-92 and 91.8 µM (inactive) in the experiment on NCI-H522.
Turning to `O=C(NC(CS)C(=O)O)c1c2ccccc2nc2ccccc12` (centres undefined), the GI50 was 83.9 µM (inactive) in the experiment on HCC 2998; 83.8 µM (inactive) in the experiment with SNB-75; 3.87 µM (inactive) in the experiment with UO-31; 13.6 µM (inactive) in the experiment with HCT-116; > 100 µM (inactive) with SR; 15.2 µM (inactive) in the experiment on Malme-3M. Moreover, the GI50 is 76.6 µM (inactive) in the experiment on MDA-MB-231; 19.7 µM (inactive) in the experiment with A549; < 0.01 µM (active) in the experiment with NCI-H226; 34 µM (inactive) in the experiment with SW-620; > 100 µM (inactive) with SN12C; 0.16 µM (active) in the experiment with HL-60. The GI50 with SK-MEL-2 was 47.8 µM (inactive); with HT-29, 14.5 µM (inactive); with HOP-92 it was > 100 µM (inactive); with NCI-H522, 31.1 µM (inactive).
Take `CCOC(=O)C1(F)S(=O)(=O)OCCOS1(=O)=O`: the GI50 with HCC 2998, with SNB-75, in the experiment with UO-31, with HCT-116, in the experiment on SR and with Malme-3M was > 100 µM (inactive) throughout. Moreover, the GI50 was > 100 µM (inactive) with A549; > 100 µM (inactive) in the experiment on NCI-H226; > 100 µM (inactive) in the experiment on SW-620; > 100 µM (inactive) with SN12C; 93.3 µM (inactive) in the experiment on Hs-578T; > 100 µM (inactive) with SK-MEL-2. Further, the GI50 in the experiment on HT-29 and in the experiment with NCI-H522 was > 100 µM (inactive) each time.
Consider `O=C(O)CNc1ccc2c(c1)Cc1cc(Br)ccc1-2`, for which the GI50 was 34.6 µM (inactive) in the experiment with SNB-75; 36 µM (inactive) in the experiment with UO-31; 18.5 µM (inactive) with HCT-116; 20.6 µM (inactive) in the experiment on Malme-3M; 19.7 µM (inactive) in the experiment with MDA-MB-231; 21.3 µM (inactive) with A549. Besides, the GI50 is 21.2 µM (inactive) in the experiment with NCI-H226; 24.2 µM (inactive) with SW-620; 22.7 µM (inactive) in the experiment with SN12C; 4.65 µM (inactive) in the experiment with Hs-578T; 23.4 µM (inactive) in the experiment with HL-60; 26 µM (inactive) in the experiment on SK-MEL-2. The GI50 was 27.1 µM (inactive) in the experiment on HT-29, 25.6 µM (inactive) in the experiment on HOP-92 and 18.5 µM (inactive) in the experiment with NCI-H522.
As to `Nn1c(S)nnc1CCCCCCCCc1nnc(S)n1N`, the GI50 in the experiment on HCC 2998, in the experiment on SNB-75, in the experiment on UO-31, with HCT-116, with SR and in the experiment with Malme-3M was > 100 µM (inactive) each time. The GI50 in the experiment with MDA-MB-231, in the experiment with A549, in the experiment on NCI-H226, with SW-620, in the experiment with SN12C and with HL-60 was > 100 µM (inactive) each time. Moreover, the GI50 in the experiment on SK-MEL-2, in the experiment on HT-29, with HOP-92 and with NCI-H522 was > 100 µM (inactive) in each case.
Regarding `COc1ccc(/C=C2\OC(=O)C(Cl)=C2c2ccc(OC)c(Cl)c2)cc1`, the GI50 in the experiment with HCC 2998 is 35.3 µM (inactive); in the experiment with SNB-75, 19.7 µM (inactive); in the experiment on UO-31 it was 22 µM (inactive); in the experiment on HCT-116 it was 39.1 µM (inactive); in the experiment on SR, 29 µM (inactive); with Malme-3M, 25.3 µM (inactive). The GI50 with A549 was 24.4 µM (inactive); with SW-620, 36.6 µM (inactive); in the experiment on Hs-578T it was 20.9 µM (inactive); in the experiment with HL-60, 47.1 µM (inactive); in the experiment on SK-MEL-2, 49.8 µM (inactive); with HT-29, 43.2 µM (inactive). Further, the GI50 with HOP-92 is 17.9 µM (inactive); in the experiment with NCI-H522 it was 25.3 µM (inactive).
Turning to `OC1(C(Sc2cc(C(F)(F)F)cc(C(F)(F)F)c2)Sc2cc(C(F)(F)F)cc(C(F)(F)F)c2)C=CCCC1` (centres undefined), the GI50 in the experiment on HCC 2998 is 1.4 µM (inactive); with SNB-75, 2.15 µM (inactive); in the experiment with UO-31, 1.38 µM (inactive); with HCT-116, 2.12 µM (inactive); in the experiment with Malme-3M it was 2.77 µM (inactive); with A549, 1.63 µM (inactive). For the same molecule, the GI50 in the experiment with SW-620 was 1.91 µM (inactive); with SN12C it was 2.14 µM (inactive); with Hs-578T, 2.95 µM (inactive); with HL-60, 1.38 µM (inactive); in the experiment with HT-29, 1.08 µM (active); in the experiment with HOP-92 it was 2.83 µM (inactive). In the experiment with NCI-H522, the GI50 was 1.74 µM (inactive).
As for `O=c1[nH]nc(-c2cccc(Br)c2)[nH]1`, the GI50 was > 100 µM (inactive) with HCC 2998; 43.3 µM (inactive) in the experiment on SNB-75; 94.2 µM (inactive) with UO-31; > 100 µM (inactive) with HCT-116; > 100 µM (inactive) in the experiment with SR; > 100 µM (inactive) in the experiment on Malme-3M. Also, the GI50 in the experiment with A549 is > 100 µM (inactive); with NCI-H226, > 100 µM (inactive); with SW-620 it was > 100 µM (inactive); in the experiment on SN12C, > 100 µM (inactive); with Hs-578T, 18.2 µM (inactive); in the experiment with HL-60, > 100 µM (inactive). Moreover, the GI50 in the experiment on SK-MEL-2, in the experiment on HT-29, with HOP-92 and with NCI-H522 was > 100 µM (inactive) throughout.
For `CO[C@H]1/C=C/O[C@@]2(C)Oc3c(C)c(O)c4c(O)c(c(/C=N/N5CCN(C)CC5)c(O)c4c3C2=O)NC(=O)/C(C)=C\C=C\[C@H](C)[C@H](O)[C@@H](C)[C@@H](O)[C@@H](C)[C@H](OC(C)=O)[C@@H]1C` [RIFAMPIN], the GI50 in the experiment on HCC 2998 is 72.6 µM (inactive); with UO-31, 68.4 µM (inactive); in the experiment with HCT-116 it was 97.7 µM (inactive); with SR, 3.32 µM (inactive); in the experiment on Malme-3M, 37.5 µM (inactive); in the experiment on MDA-MB-231, 24.5 µM (inactive). The GI50 in the experiment with A549 was > 100 µM (inactive); in the experiment with SW-620, > 100 µM (inactive); in the experiment with SN12C it was > 100 µM (inactive); with SK-MEL-2, > 100 µM (inactive); in the experiment on HT-29, 60 µM (inactive).
With `O=C(O)[C@H](Cc1ccccc1)NCCN1CCC[C@H]1C(=O)O`, the GI50 in the experiment on UO-31 was 32.4 µM (inactive); in the experiment on HCT-116, > 100 µM (inactive); with Malme-3M, 49.8 µM (inactive); in the experiment with MDA-MB-231, > 100 µM (inactive); with A549, > 100 µM (inactive); in the experiment on SW-620 it was 80.4 µM (inactive). For the same molecule, the GI50 in the experiment with SN12C is > 100 µM (inactive); with SK-MEL-2, > 100 µM (inactive); in the experiment on HT-29, 26.2 µM (inactive); with HOP-92, 1.91 µM (inactive); in the experiment on NCI-H522, > 100 µM (inactive).
`O=C(Nc1ccc(Cl)cc1)Oc1ccc(C(=S)Nc2ccc(Br)cc2)cc1`: the GI50 with HCC 2998 was 15.4 µM (inactive); in the experiment on UO-31, 18.2 µM (inactive); in the experiment with HCT-116, 10.3 µM (inactive); in the experiment on SR it was 5.06 µM (inactive); in the experiment with Malme-3M, 20.2 µM (inactive); with A549 it was 10 µM (inactive). Further, the GI50 in the experiment with SW-620 was 20.3 µM (inactive); in the experiment on Hs-578T, 57.1 µM (inactive); with HL-60, 1.61 µM (inactive); in the experiment with SK-MEL-2 it was 6.62 µM (inactive); in the experiment with HT-29 it was 2.19 µM (inactive); with NCI-H522 it was 10.4 µM (inactive).
Regarding `COC(=O)c1cc2ccc(N)nc2[nH]c1=O`, the GI50 in the experiment with HCC 2998, in the experiment on SNB-75, in the experiment on UO-31, with HCT-116, in the experiment on Malme-3M and in the experiment on MDA-MB-231 was > 100 µM (inactive) each time. Moreover, the GI50 with A549, with NCI-H226, in the experiment on SW-620, with SN12C, with SK-MEL-2 and in the experiment on HOP-92 was > 100 µM (inactive) each time. The GI50 in the experiment on NCI-H522 was > 100 µM (inactive).
Turning to `Cc1cn(Cc2ccccc2CCl)c(=O)[nH]c1=O`, the GI50 in the experiment on HCC 2998 was 15.3 µM (inactive); in the experiment with SNB-75, 14.6 µM (inactive); in the experiment on UO-31 it was 11.6 µM (inactive); in the experiment with HCT-116, 4.53 µM (inactive); with Malme-3M it was 21.3 µM (inactive); in the experiment with A549, 16.9 µM (inactive). The GI50 with SW-620 was 8.15 µM (inactive); with SN12C it was 12.6 µM (inactive); in the experiment on Hs-578T it was 14.2 µM (inactive); with HL-60, 3.08 µM (inactive); in the experiment on SK-MEL-2, 14.3 µM (inactive); in the experiment with HT-29, 15.4 µM (inactive). The values for the GI50 in the experiment with HOP-92 and in the experiment with NCI-H522 were 25.4 µM (inactive) and 6.34 µM (inactive), respectively.

For the origin of these results see ChEMBL document CHEMBL1201862, “PubChem BioAssay data set” (2004).
